Test results as given in US20230263822A1, “MODULATION OF FACTOR 11 EXPRESSION” (Ionis Pharmaceuticals, Inc., priority 2008, published 2023).
Strand notation (5' to 3'): a small letter for the sugar, then the base; units joined by * are phosphorothioate-linked, units joined directly phosphodiester-linked; [ ] holds rarer units or linkages, { } end groups; capitals alone tell only the bases. e = 2'-O-(2-methoxyethyl) (MOE); [5mC] = 5-methylcytosine; d = 2'-deoxy (DNA)

Tested on: human Factor 11 mRNA
Experiment: Antisense inhibition of human Factor 11 in HepG2 cells by microwalk gapmers, lipofectin, 75 nM (Example 3)
Assay type: cell-based
Details: HepG2, lipofectin, ~24 h, gapmers targeted to nucleobases 656 to 704 of SEQ ID NO: 1
Protocol: These gapmers were designed by creating gapmers shifted slightly upstream and downstream (i.e. “microwalk”) of the original gapmers from Table 3. Gapmers were also created with various motifs, e.g. 5-10-5 MOE, 3-14-3 MOE, and 2-13-5 MOE. These gapmers were tested in vitro. Cultured HepG2 cells at a density of 10,000 cells per well were transfected using lipofectin reagent with 75 nM antisense oligonucleotide. After a treatment period of approximately 24 hours, RNA was isolated from the cells and Factor 11 mRNA levels were measured by quantitative real-time PCR. Factor 11 mRNA levels were adjusted according to total RNA content, as measured by RIBOGREEN. Results are presented as percent inhibition of Factor 11, relative to untreated control cells.
The chimeric antisense oligonucleotides in Table 4 were designed as 5-10-5 MOE, 3-14-3 MOE, and 2-13-5 MOE gapmers. The first listed gapmers in Table 4 are the original gapmers (see Table 3) from which the remaining gapmers were designed via microwalk and are designated by an asterisk. The 5-10-5 gapmers are 20 nucleotides in length, wherein the central gap segment is comprised of 10 2′-deoxynucleotides and is flanked on both sides (in the 5′ and 3′ directions) by wings comprising 5 nucleotides each. The 3-14-3 gapmers are 20 nucleotides in length, wherein the central gap segment is comprised of 14 2′-deoxynucleotides and is flanked on both sides (in the 5′ and 3′ directions) by wings comprising 3 nucleotides each. The 2-13-5 gapmers are 20 nucleotides in length, wherein the central gap segment is comprised of 13 2′-deoxynucleotides. The central gap is flanked on the 5′ end with a wing comprising 2 nucleotides and on the 3′ end with a wing comprising 5 nucleotides. For each of the motifs (5-10-5, 3-14-3, and 2-13-5), each nucleotide in the 5′ wing segment and each nucleotide in the 3′ wing segment has a 2′-MOE modification. The internucleoside linkages throughout each gapmer are phosphorothioate (P=S) linkages. All cytidine residues throughout each gapmer are 5-methyl cytidines. “Target start site” indicates the 5′-most nucleotide to which the gapmer is targeted. “Target stop site” indicates the 3′-most nucleotide to which the gapmer is targeted. Each gapmer listed in Table 4 is targeted to SEQ ID NO: 1 (GENBANK Accession No. NM_000128.3).

Substance	% inhibition
416893 (antisense eT*eG*e[5mC]*d[5mC]*d[5mC]*dT*dT*d[5mC]*dA*dT*dG*dT*d[5mC]*dT*dA*dG*dG*eT*e[5mC]*e[5mC]) [compound 416893]	90%
416821 (antisense eT*e[5mC]*eA*eT*eG*dT*d[5mC]*dT*dA*dG*dG*dT*d[5mC]*d[5mC]*dA*e[5mC]*eA*eT*eA*eA) [compound 416821]	84%
416811 (antisense e[5mC]*e[5mC]*eA*e[5mC]*eA*dT*dA*dA*dA*dT*dG*dT*d[5mC]*dT*dT*eT*eG*eT*eT*eG) [compound 416811]	84%
416820 (antisense e[5mC]*eA*eT*eG*eT*d[5mC]*dT*dA*dG*dG*dT*d[5mC]*d[5mC]*dA*d[5mC]*eA*eT*eA*eA*eA) [compound 416820]	77%
416886 (antisense e[5mC]*eA*eT*dG*dT*d[5mC]*dT*dA*dG*dG*dT*d[5mC]*d[5mC]*dA*d[5mC]*dA*dT*eA*eA*eA) [compound 416886]	74%
416877 (antisense eG*eT*e[5mC]*d[5mC]*dA*d[5mC]*dA*dT*dA*dA*dA*dT*dG*dT*d[5mC]*dT*dT*eT*eG*eT) [compound 416877]	51%
416953 (antisense eT*e[5mC]*d[5mC]*dA*d[5mC]*dA*dT*dA*dA*dA*dT*dG*dT*d[5mC]*dT*eT*eT*eG*eT*eT) [compound 416953]	45%
416950 (antisense eA*e[5mC]*dA*dT*dA*dA*dA*dT*dG*dT*d[5mC]*dT*dT*dT*dG*eT*eT*eG*e[5mC]*eA) [compound 416950]	71%
416880 (antisense eT*eA*eG*dG*dT*d[5mC]*d[5mC]*dA*d[5mC]*dA*dT*dA*dA*dA*dT*dG*dT*e[5mC]*eT*eT) [compound 416880]	66%
416954 (antisense eG*eT*d[5mC]*d[5mC]*dA*d[5mC]*dA*dT*dA*dA*dA*dT*dG*dT*d[5mC]*eT*eT*eT*eG*eT) [compound 416954]	61%
416961 (antisense eT*eG*dT*d[5mC]*dT*dA*dG*dG*dT*d[5mC]*d[5mC]*dA*d[5mC]*dA*dT*eA*eA*eA*eT*eG) [compound 416961]	40%
416812 (antisense eT*e[5mC]*e[5mC]*eA*e[5mC]*dA*dT*dA*dA*dA*dT*dG*dT*d[5mC]*dT*eT*eT*eG*eT*eT) [compound 416812]	59%
416868 (antisense eA*eA*eT*dG*dT*d[5mC]*dT*dT*dT*dG*dT*dT*dG*d[5mC]*dA*dA*dG*e[5mC]*eG*e[5mC]) [compound 416868]	93%
416807 (antisense eT*eA*eA*eA*eT*dG*dT*d[5mC]*dT*dT*dT*dG*dT*dT*dG*e[5mC]*eA*eA*eG*e[5mC]) [compound 416807]	51%

Same assay, conditions: HepG2 cells, lipofectin, gapmers targeted to nucleobases 738 to 762 of SEQ ID NO: 1

Substance	% inhibition
416832 (antisense e[5mC]*eA*eT*e[5mC]*e[5mC]*dG*dT*dG*d[5mC]*dA*dT*d[5mC]*dT*dT*dT*e[5mC]*eT*eT*eG*eG) [compound 416832]	79%
416978 (antisense e[5mC]*eA*dT*d[5mC]*d[5mC]*dG*dT*dG*d[5mC]*dA*dT*d[5mC]*dT*dT*dT*e[5mC]*eT*eT*eG*eG) [compound 416978]	76%
416979 (antisense eT*e[5mC]*dA*dT*d[5mC]*d[5mC]*dG*dT*dG*d[5mC]*dA*dT*d[5mC]*dT*dT*eT*e[5mC]*eT*eT*eG) [compound 416979]	63%

Same assay, conditions: HepG2 cells, lipofectin, gapmers targeted to nucleobases 1018 to 1042 of SEQ ID NO: 1

Substance	% inhibition
416836 (antisense eA*eA*e[5mC]*e[5mC]*eG*dG*dG*dA*dT*dG*dA*dT*dG*dA*dG*eT*eG*e[5mC]*eA*eG) [compound 416836]	89%
416907 (antisense e[5mC]*eA*eA*d[5mC]*d[5mC]*dG*dG*dG*dA*dT*dG*dA*dT*dG*dA*dG*dT*eG*e[5mC]*eA) [compound 416907]	90%

Same assay, conditions: HepG2 cells, lipofectin, gapmers targeted to nucleobases 1062 to 1091 of SEQ ID NO: 1

Substance	% inhibition
416846 (antisense eT*eT*e[5mC]*eT*eT*dT*dG*dA*dG*dA*dT*dT*d[5mC]*dT*dT*eT*eG*eG*eG*e[5mC]) [compound 416846]	72%
416912 (antisense eG*eA*eG*dA*dT*dT*d[5mC]*dT*dT*dT*dG*dG*dG*d[5mC]*d[5mC]*dA*dT*eT*e[5mC]*e[5mC]) [compound 416912]	92%
416913 (antisense eT*eG*eA*dG*dA*dT*dT*d[5mC]*dT*dT*dT*dG*dG*dG*d[5mC]*d[5mC]*dA*eT*eT*e[5mC]) [compound 416913]	93%
416995 (antisense eT*eT*d[5mC]*dT*dT*dT*dG*dA*dG*dA*dT*dT*d[5mC]*dT*dT*eT*eG*eG*eG*e[5mC]) [compound 416995]	64%
416914 (antisense eT*eT*eG*dA*dG*dA*dT*dT*d[5mC]*dT*dT*dT*dG*dG*dG*d[5mC]*d[5mC]*eA*eT*eT) [compound 416914]	87%
416918 (antisense eT*eT*e[5mC]*dT*dT*dT*dG*dA*dG*dA*dT*dT*d[5mC]*dT*dT*dT*dG*eG*eG*e[5mC]) [compound 416918]	63%
416988 (antisense eA*eG*dA*dT*dT*d[5mC]*dT*dT*dT*dG*dG*dG*d[5mC]*d[5mC]*dA*eT*eT*e[5mC]*e[5mC]*eT) [compound 416988]	76%
416916 (antisense e[5mC]*eT*eT*dT*dG*dA*dG*dA*dT*dT*d[5mC]*dT*dT*dT*dG*dG*dG*e[5mC]*e[5mC]*eA) [compound 416916]	91%
416839 (antisense eG*eA*eT*eT*e[5mC]*dT*dT*dT*dG*dG*dG*d[5mC]*d[5mC]*dA*dT*eT*e[5mC]*e[5mC]*eT*eG) [compound 416839]	89%
416911 (antisense eA*eG*eA*dT*dT*d[5mC]*dT*dT*dT*dG*dG*dG*d[5mC]*d[5mC]*dA*dT*dT*e[5mC]*e[5mC]*eT) [compound 416911]	90%
416996 (antisense eT*eT*dT*d[5mC]*dT*dT*dT*dG*dA*dG*dA*dT*dT*d[5mC]*dT*eT*eT*eG*eG*eG) [compound 416996]	22%
416917 (antisense eT*e[5mC]*eT*dT*dT*dG*dA*dG*dA*dT*dT*d[5mC]*dT*dT*dT*dG*dG*eG*e[5mC]*e[5mC]) [compound 416917]	92%

Same assay, conditions: HepG2 cells, lipofectin, gapmers targeted to nucleobases 1275 to 1318 of SEQ ID NO: 1

Substance	% inhibition
416933 (antisense eA*e[5mC]*eG*dG*d[5mC]*dA*dT*dT*dG*dG*dT*dG*d[5mC]*dA*d[5mC]*dA*dG*eT*eT*eT) [compound 416933]	92%
417004 (antisense eT*eT*dG*dG*dT*dG*d[5mC]*dA*d[5mC]*dA*dG*dT*dT*dT*d[5mC]*eT*eG*eG*e[5mC]*eA) [compound 417004]	86%
417021 (antisense eA*e[5mC]*dT*dG*dG*d[5mC]*dA*dG*d[5mC]*dG*dG*dA*d[5mC]*dG*dG*e[5mC]*eA*eT*eT*eG) [compound 417021]	74%
417018 (antisense eG*eG*d[5mC]*dA*dG*d[5mC]*dG*dG*dA*d[5mC]*dG*dG*d[5mC]*dA*dT*eT*eG*eG*eT*eG) [compound 417018]	82%
417014 (antisense eG*e[5mC]*dG*dG*dA*d[5mC]*dG*dG*d[5mC]*dA*dT*dT*dG*dG*dT*eG*e[5mC]*eA*e[5mC]*eA) [compound 417014]	87%
417009 (antisense e[5mC]*eG*dG*d[5mC]*dA*dT*dT*dG*dG*dT*dG*d[5mC]*dA*d[5mC]*dA*eG*eT*eT*eT*e[5mC]) [compound 417009]	85%
417017 (antisense eG*e[5mC]*dA*dG*d[5mC]*dG*dG*dA*d[5mC]*dG*dG*d[5mC]*dA*dT*dT*eG*eG*eT*eG*e[5mC]) [compound 417017]	82%
417019 (antisense eT*eG*dG*d[5mC]*dA*dG*d[5mC]*dG*dG*dA*d[5mC]*dG*dG*d[5mC]*dA*eT*eT*eG*eG*eT) [compound 417019]	84%
